Assay results as given in US8377957B2, “Hydroxy and alkoxy substituted 1H-imidazoquinolines and methods” (3M Innovative Properties Company, priority 2005, dated 2013).

Row | melting point [°C] | SMILES
1 | 292 to 295 | C[C@@H](c1ccccc1)n1c(O)nc2c(N)nc3ccccc3c21 [Example 5, 4-Amino-1-[(1S)-1-phenylethyl]-1H-imidazo[4,5-c]quinolin-2-ol]
2 | 240 to 242 | COc1nc2c(N)nc3ccccc3c2n1Cc1ccccc1 [Example 7, 1-Benzyl-2-methoxy-1H-imidazo[4,5-c]quinolin-4-amine]
